Like-named read-outs stand apart in the source and are kept apart here.
Biological target: T1, F508delCFTR (Homo sapiens, UniProt P13569, DEL508-508)
T1 construct: expressed in transfected cells; host or cells: CFBE41o- (human lung derived epithelial cell line), doxycycline-inducible expression
Experiment: Cell Surface Expression-Horse Radish Peroxidase (CSE-HRP) assay
Format: cell-based
Conditions: CFBE41o-F508delCFTR-HRP cells; for Maximum % activity (with co-corrector): with co-corrector (2 μM); for Maximum % activity (with co-corrector) / Maximum % activity (without co-corrector): normalized to on-plate positive control, highest concentration 20 μM
Procedure, shortened: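 CFBE41o- cells expressed F508delCFTR with HRP in the fourth exofacial loop, induced by 0.5 μg/mL doxycycline for 72 h at 37 °C. Compounds alone or with 2 μM co-corrector ran 18–24 h at 33 °C, 8-point 3-fold from 20 μM. Washed-cell luminol luminescence was normalized to DMSO and positive control, fitted sigmoidally for EC50 (three plates).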

[1] = test compound without co-corrector, 18-24 hours at 33° C., read-out: EC50 (without co-corrector)
[2] = with co-corrector (2 μM of 3-[(2R,4R)-4-({[1-(2,2-difluoro-1,3-benzodioxol-5-yl)cyclopropyl]carbonyl}amino)-7-methoxy-3,4-dihydro-2H-chromen-2-yl]benzoic acid), read-out: EC50 (with co-corrector)

T1 sequence (P13569 with tags, fused parts or gaps DEL508-508): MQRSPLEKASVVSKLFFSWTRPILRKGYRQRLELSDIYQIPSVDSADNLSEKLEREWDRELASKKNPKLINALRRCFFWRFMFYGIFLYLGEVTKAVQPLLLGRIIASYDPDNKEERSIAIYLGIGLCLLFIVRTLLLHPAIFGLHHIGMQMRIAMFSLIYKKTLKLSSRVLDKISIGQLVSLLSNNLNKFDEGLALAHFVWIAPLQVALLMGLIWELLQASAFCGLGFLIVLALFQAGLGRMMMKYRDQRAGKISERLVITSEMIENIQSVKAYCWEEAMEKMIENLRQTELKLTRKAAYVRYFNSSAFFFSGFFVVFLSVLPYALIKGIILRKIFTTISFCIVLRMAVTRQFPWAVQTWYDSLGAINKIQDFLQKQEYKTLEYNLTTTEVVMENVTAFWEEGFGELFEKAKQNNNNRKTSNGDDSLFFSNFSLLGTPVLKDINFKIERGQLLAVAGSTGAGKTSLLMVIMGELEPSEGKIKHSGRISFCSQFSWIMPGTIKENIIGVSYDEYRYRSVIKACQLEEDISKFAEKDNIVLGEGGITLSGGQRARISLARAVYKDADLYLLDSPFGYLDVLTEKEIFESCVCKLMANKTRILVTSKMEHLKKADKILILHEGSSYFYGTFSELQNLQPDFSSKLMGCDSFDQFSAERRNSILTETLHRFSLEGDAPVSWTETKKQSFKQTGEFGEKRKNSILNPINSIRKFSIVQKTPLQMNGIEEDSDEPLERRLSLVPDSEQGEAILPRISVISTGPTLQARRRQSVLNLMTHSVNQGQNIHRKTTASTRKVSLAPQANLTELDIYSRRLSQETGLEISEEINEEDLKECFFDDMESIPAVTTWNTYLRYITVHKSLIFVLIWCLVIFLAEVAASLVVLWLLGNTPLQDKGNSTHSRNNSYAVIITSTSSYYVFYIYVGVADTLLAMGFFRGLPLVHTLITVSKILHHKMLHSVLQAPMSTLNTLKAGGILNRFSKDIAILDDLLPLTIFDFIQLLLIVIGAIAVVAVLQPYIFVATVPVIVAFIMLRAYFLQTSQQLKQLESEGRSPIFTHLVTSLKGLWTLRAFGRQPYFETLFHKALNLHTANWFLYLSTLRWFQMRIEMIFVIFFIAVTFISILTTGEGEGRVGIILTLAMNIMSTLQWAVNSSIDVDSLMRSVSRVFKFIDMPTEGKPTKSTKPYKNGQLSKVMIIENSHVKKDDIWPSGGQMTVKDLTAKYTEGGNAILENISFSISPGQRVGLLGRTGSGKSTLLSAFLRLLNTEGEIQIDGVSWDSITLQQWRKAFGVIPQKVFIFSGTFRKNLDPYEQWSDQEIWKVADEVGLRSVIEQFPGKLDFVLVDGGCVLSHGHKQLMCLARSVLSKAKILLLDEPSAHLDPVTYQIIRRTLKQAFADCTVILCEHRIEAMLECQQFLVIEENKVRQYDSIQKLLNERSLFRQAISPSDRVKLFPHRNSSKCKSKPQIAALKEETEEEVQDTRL

SMILES	EC50 [1] [nM]	EC50 [2] [nM]	Maximum % activity (with co-corrector)	Maximum % activity (without co-corrector)
COc1ncc(C(F)(F)F)cc1CO[C@H]1[C@H](C(C)(C)C)[C@@H](C(=O)O)N(C(=O)[C@@H]2CCCCO2)[C@H]1c1ccccc1-c1ccc2c(c1)OCO2 [Example 203, (2S,3R,4S,5S)-5-[2-(2H-1,3-benzodioxol-5-yl)phenyl]-3-tert-butyl-4-{[2-methoxy-5-(trifluoromethyl)pyridin-3-yl]methoxy}-1-[(2S)-oxane-2-carbonyl]pyrrolidine-2-carboxylic acid]	1000 to 10000	1000 to 10000	+++ (≥350)	+++ (≥200)
COc1ncc(C(F)(F)F)cc1CO[C@H]1[C@H](C(C)(C)C)[C@@H](C(=O)O)N(C(=O)[C@@H]2CCCCO2)[C@H]1c1ccccc1-c1ccccc1F [Example 204, (2S,3R,4S,5S)-3-tert-butyl-5-(2′-fluoro[1,1′-biphenyl]-2-yl)-4-{[2-methoxy-5-(trifluoromethyl)pyridin-3-yl]methoxy}-1-[(2S)-oxane-2-carbonyl]pyrrolidine-2-carboxylic acid]	1000 to 10000	< 1000	+++ (≥350)	+++ (≥200)
COc1ccc(-c2ccccc2[C@H]2[C@@H](OCc3cc(C(F)(F)F)cnc3OC)[C@H](C(C)(C)C)[C@@H](C(=O)O)N2C(=O)[C@@H]2CCCCO2)cn1 [Example 205, (2S,3R,4S,5S)-3-tert-butyl-5-[2-(6-methoxypyridin-3-yl)phenyl]-4-{[2-methoxy-5-(trifluoromethyl)pyridin-3-yl]methoxy}-1-[(2S)-oxane-2-carbonyl]pyrrolidine-2-carboxylic acid]	1000 to 10000	1000 to 10000	+++ (≥350)	++ (≥100 and <200)
COc1ncc(C(F)(F)F)cc1CO[C@H]1[C@H](C(C)(C)C)[C@@H](C(=O)O)N(C(=O)[C@@H]2CCCCO2)[C@H]1c1ccccc1-c1ccc(OC(F)(F)F)cc1 [Example 206, (2S,3R,4S,5S)-3-tert-butyl-4-{[2-methoxy-5-(trifluoromethyl)pyridin-3-yl]methoxy}-1-[(2S)-oxane-2-carbonyl]-5-[4′-(trifluoromethoxy) [1,1′-biphenyl]-2-yl]pyrrolidine-2-carboxylic acid]	1000 to 10000	1000 to 10000	+++ (≥350)	+++ (≥200)
COc1ncc(C(F)(F)F)cc1CO[C@H]1[C@H](C(C)(C)C)[C@@H](C(=O)O)N(C(=O)[C@@H]2CCCCO2)[C@H]1c1ccccc1-c1ccc(C#N)cc1 [Example 207, (2S,3R,4S,5S)-3-tert-butyl-5-(4′-cyano[1,1′-biphenyl]-2-yl)-4-{[2-methoxy-5-(trifluoromethyl)pyridin-3-yl]methoxy}-1-[(2S)-oxane-2-carbonyl]pyrrolidine-2-carboxylic acid]	1000 to 10000	1000 to 10000	+++ (≥350)	++ (≥100 and <200)
COc1ncc(C(F)(F)F)cc1CO[C@H]1[C@H](C(C)(C)C)[C@@H](C(=O)O)N(C(=O)[C@@H]2CCCCO2)[C@H]1c1ccccc1-c1ccc(C(F)(F)F)nc1 [Example 208, (2S,3R,4S,5S)-3-tert-butyl-4-{[2-methoxy-5-(trifluoromethyl)pyridin-3-yl]methoxy}-1-[(2S)-oxane-2-carbonyl]-5-{2-[6-(trifluoromethyl)pyridin-3-yl]phenyl}pyrrolidine-2-carboxylic acid]	1000 to 10000	1000 to 10000	+++ (≥350)	+++ (≥200)
CCOc1cncc(-c2ccccc2[C@H]2[C@@H](OCc3cc(C(F)(F)F)cnc3OC)[C@H](C(C)(C)C)[C@@H](C(=O)O)N2C(=O)[C@@H]2CCCCO2)c1 [Example 209, (2S,3R,4S,5S)-3-tert-butyl-5-[2-(5-ethoxypyridin-3-yl)phenyl]-4-{[2-methoxy-5-(trifluoromethyl)pyridin-3-yl]methoxy}-1-[(2S)-oxane-2-carbonyl]pyrrolidine-2-carboxylic acid]	1000 to 10000	1000 to 10000	+++ (≥350)	++ (≥100 and <200)
COc1ccc(C(C)(C)C)cc1CO[C@H]1[C@H](C(C)(C)C)[C@@H](C(=O)O)N(C(=O)[C@@H]2CCCCO2)[C@H]1c1cccc2ccccc12 [Example 211, (2S,3R,4S,5S)-3-tert-butyl-4-[(5-tert-butyl-2-methoxyphenyl)methoxy]-5-(naphthalen-1-yl)-1-[(2S)-oxane-2-carbonyl]pyrrolidine-2-carboxylic acid]	1000 to 10000	< 1000	+++ (≥350)	+++ (≥200)
COc1ncc(C(F)(F)F)cc1CO[C@H]1[C@H](C(C)(C)C)[C@@H](C(=O)O)N(C(=O)[C@@H]2CCCCO2)[C@H]1c1cccc2ccoc12 [Example 212, (2S,3R,4S,5S)-5-(1-benzofuran-7-yl)-3-tert-butyl-4-{[2-methoxy-5-(trifluoromethyl)pyridin-3-yl]methoxy}-1-[(2S)-oxane-2-carbonyl]pyrrolidine-2-carboxylic acid]	1000 to 10000	1000 to 10000	+++ (≥350)	++ (≥100 and <200)
COc1ncc(C(F)(F)F)cc1CO[C@H]1[C@H](C(C)(C)C)[C@@H](C(=O)O)N(C(=O)[C@@H]2CCCCO2)[C@H]1c1ccccc1CC(C)C [Example 213, (2S,3R,4S,5S)-3-tert-butyl-4-{[2-methoxy-5-(trifluoromethyl)pyridin-3-yl]methoxy}-5-[2-(2-methylpropyl)phenyl]-1-[(2S)-oxane-2-carbonyl]pyrrolidine-2-carboxylic acid]	1000 to 10000	< 1000	+++ (≥350)	+++ (≥200)

Now from value to molecule:

EC50 [1] [nM]	EC50 [2] [nM]	Maximum % activity (with co-corrector)	Maximum % activity (without co-corrector)	SMILES
1000 to 10000	1000 to 10000	++ (≥150 and <350)	+ (<100)	COc1ncc(C(F)(F)F)cc1CO[C@H]1[C@H](C(C)(C)C)[C@@H](C(=O)O)N(C(=O)[C@@H]2CCCCO2)[C@H]1c1ccccc1-c1cncnc1 [Example 197, (2S,3R,4S,5S)-3-tert-butyl-4-{[2-methoxy-5-(trifluoromethyl)pyridin-3-yl]methoxy}-1-[(2S)-oxane-2-carbonyl]-5-[2-(pyrimidin-5-yl)phenyl]pyrrolidine-2-carboxylic acid]
1000 to 10000	1000 to 10000	+++ (≥350)	+++ (≥200)	COc1ncc(C(F)(F)F)cc1CO[C@H]1[C@H](C(C)(C)C)[C@@H](C(=O)O)N(C(=O)[C@@H]2CCCCO2)[C@H]1c1ccccc1-c1ccoc1 [Example 198, (2S,3R,4S,5S)-3-tert-butyl-5-[2-(furan-3-yl)phenyl]-4-{[2-methoxy-5-(trifluoromethyl)pyridin-3-yl]methoxy}-1-[(2S)-oxane-2-carbonyl]pyrrolidine-2-carboxylic acid]
1000 to 10000	1000 to 10000	+++ (≥350)	+++ (≥200)	COc1ncc(C(F)(F)F)cc1CO[C@H]1[C@H](C(C)(C)C)[C@@H](C(=O)O)N(C(=O)[C@@H]2CCCCO2)[C@H]1c1ccccc1-c1ccn(C)c1 [Example 199, (2S,3R,4S,5S)-3-tert-butyl-4-{[2-methoxy-5-(trifluoromethyl)pyridin-3-yl]methoxy}-5-[2-(1-methyl-1H-pyrrol-3-yl)phenyl]-1-[(2S)-oxane-2-carbonyl]pyrrolidine-2-carboxylic acid]
1000 to 10000	< 1000	+++ (≥350)	+++ (≥200)	COc1ncc(C(F)(F)F)cc1CO[C@H]1[C@H](C(C)(C)C)[C@@H](C(=O)O)N(C(=O)[C@@H]2CCCCO2)[C@H]1c1ccccc1-c1ccccc1Cl [Example 200, (2S,3R,4S,5S)-3-tert-butyl-5-(2′-chloro[1,1′-biphenyl]-2-yl)-4-{[2-methoxy-5-(trifluoromethyl)pyridin-3-yl]methoxy}-1-[(2S)-oxane-2-carbonyl]pyrrolidine-2-carboxylic acid]
1000 to 10000	1000 to 10000	+++ (≥350)	+++ (≥200)	COc1ncc(C(F)(F)F)cc1CO[C@H]1[C@H](C(C)(C)C)[C@@H](C(=O)O)N(C(=O)[C@@H]2CCCCO2)[C@H]1c1ccccc1-c1cccc(OC(F)(F)F)c1 [Example 201, (2S,3R,4S,5S)-3-tert-butyl-4-{[2-methoxy-5-(trifluoromethyl)pyridin-3-yl]methoxy}-1-[(2S)-oxane-2-carbonyl]-5-[3′-(trifluoromethoxy) [1,1′-biphenyl]-2-yl]pyrrolidine-2-carboxylic acid]
1000 to 10000	1000 to 10000	+++ (≥350)	+++ (≥200)	COc1ncc(C(F)(F)F)cc1CO[C@H]1[C@H](C(C)(C)C)[C@@H](C(=O)O)N(C(=O)[C@@H]2CCCCO2)[C@H]1c1ccccc1-c1ccc(Cl)cc1 [Example 202, (2S,3R,4S,5S)-3-tert-butyl-5-(4′-chloro[1,1′-biphenyl]-2-yl)-4-{[2-methoxy-5-(trifluoromethyl)pyridin-3-yl]methoxy}-1-[(2S)-oxane-2-carbonyl]pyrrolidine-2-carboxylic acid]

Source: patent US10399940B2, “Substituted pyrrolidines and methods of use” (AbbVie S.à.r.l., priority 2016, dated 2019)
